Data published in ChEMBL document CHEMBL4152282, “Synthesis and photodynamic activities of integrin-targeting silicon(IV) phthalocyanine-cRGD conjugates” (Eur J Med Chem, 2018).
pIC50: −log10 of the molar value.

Legend:
[1] = Aggregation behavior of compound in water at 3 uM by UV-vis absorption spectra analysis; format: physicochemical; settings: buffer
HT-29 [2] = assay: Photocytotoxicity against human HT-29 cells with high expression of alphaVbeta3 integrin assessed as decrease in cell viability preincubated for 2 hrs followed by red light irradiation and measured after overnight incubation by MTT assay; format: functional, cell-based; settings: HT-29, light or radiation study
MCF7 [3] = assay: Photocytotoxicity against human MCF7 cells with low expression of alphaVbeta3 integrin assessed as decrease in cell viability preincubated for 24 hrs followed by red light irradiation and measured after overnight incubation by MTT assay; format: functional, cell-based; settings: MCF7, light or radiation study
[4] = Selectivity ratio of IC50 for human MCF7 cells with low expression of alphaVbeta3 integrin to IC50 for human HT-29 cells with high expression of alphaVbeta3 integrin preincubated for 2 hrs followed by red light irradiation and measured after overnight incubation by MTT assay; format: functional
[5] = Photostability in DMF assessed as release of singlet oxygen at 4 uM preincubated with DPBF in dark followed by irradiation with red light by DPBF decay assay; format: functional
[6] = Aggregation behavior of compound in RPMI 1640 medium with 0.05% cremophor EL at 3 uM by UV-vis absorption spectra analysis; format: physicochemical
[7] = Selectivity ratio of IC50 for human MCF7 cells with low expression of alphaVbeta3 integrin to IC50 for human HT-29 cells with high expression of alphaVbeta3 integrin preincubated for 24 hrs followed by red light irradiation and measured after overnight incubation by MTT assay; format: functional
HT-29 [8] = assay: Photocytotoxicity against human HT-29 cells with high expression of alphaVbeta3 integrin assessed as decrease in cell viability preincubated for 24 hrs followed by red light irradiation and measured after overnight incubation by MTT assay; format: functional, cell-based; settings: HT-29, light or radiation study
[9] = Aggregation behavior of compound in DMF at 1 to 6 uM by UV-vis absorption spectra analysis; format: physicochemical
MCF7 [10] = assay: Photocytotoxicity against human MCF7 cells with low expression of alphaVbeta3 integrin assessed as decrease in cell viability preincubated for 2 hrs followed by red light irradiation and measured after overnight incubation by MTT assay; format: functional, cell-based; settings: MCF7, light or radiation study
[11] = Aggregation behavior of compound in DMF by UV-vis absorption spectra analysis; format: physicochemical
Mus musculus = assay: Drug uptake in KM mouse xenografted with […] cells at 0.5 nmol/g, iv measured up to 24 hrs by fluorescence imaging method; format: ADME, organism-based; settings: in vivo
[12] = Drug uptake in spleen of KM mouse xenografted with […] cells expressing integrin at 0.5 nmol/g, iv measured after 24 hrs by fluorescence imaging method; format: ADME, organism-based; settings: in vivo
[13] = Drug uptake in liver of KM mouse xenografted with […] cells expressing integrin at 0.5 nmol/g, iv measured after 24 hrs by fluorescence imaging method; format: ADME, organism-based; settings: in vivo
[14] = Drug uptake in lysosome of human HT-29 cells at 1 uM incubated for 0.5 hrs by Lyso Tracker red dye-based confocal laser scanning microscopic method; format: ADME, subcellular; settings: ht-29, 0.5 h
[15] = Drug uptake in kidney of KM mouse xenografted with […] cells expressing integrin at 0.5 nmol/g, iv measured after 24 hrs by fluorescence imaging method; format: ADME, organism-based; settings: in vivo
[16] = Drug uptake in skin of KM mouse xenografted with […] cells expressing integrin at 0.5 nmol/g, iv measured after 24 hrs by fluorescence imaging method; format: ADME, organism-based, Zone of skin; settings: in vivo
[17] = Drug uptake in human HT-29 cells at 1 uM after 2 to 24 hrs by confocal laser scanning microscopic method; format: ADME, cell-based; settings: ht-29, 1 µM
[18] = Drug uptake in mitochondria of human HT-29 cells at 1 uM incubated for 0.5 hrs by Mito Tracker green dye-based confocal laser scanning microscopic method; format: ADME; settings: ht-29, 0.5 h
[19] = Drug uptake in tumor of KM mouse xenografted with […] cells expressing integrin at 0.5 nmol/g, iv measured after 24 hrs by fluorescence imaging method; format: ADME, organism-based, Neoplasm; settings: in vivo
[20] = Drug uptake in lung of KM mouse xenografted with […] cells expressing integrin at 0.5 nmol/g, iv measured after 24 hrs by fluorescence imaging method; format: ADME, organism-based; settings: in vivo
[21] = Drug uptake in heart of KM mouse xenografted with […] cells expressing integrin at 0.5 nmol/g, iv measured after 24 hrs by fluorescence imaging method; format: ADME, organism-based; settings: in vivo

Compound | Activity [1] | pIC50 (HT-29 [2]) | pIC50 (MCF7 [3]) | Ratio IC50 [4] | Stability [5] | Activity [6] | Ratio IC50 [7] | pIC50 (HT-29 [8]) | Activity [9] | pIC50 (MCF7 [10]) | Activity [11] | also measured
N=C(N)NCCC[C@@H]1NC(=O)[C@H](Cc2cn(CCOCCOCCOCCO[Si]3(OCCOCCOCCOCCn4cc(C[C@@H]5NC(=O)[C@@H](Cc6ccccc6)NC(=O)[C@H](CC(=O)O)NC(=O)CNC(=O)[C@H](CCCNC(=N)N)NC5=O)nn4)n4c5c6ccccc6c4/N=C4N=C(/N=c6/c7ccccc7/c(n63)=N/C3=NC(=N\5)/c5ccccc53)c3ccccc3\4)nn2)NC(=O)[C@@H](Cc2ccccc2)NC(=O)[C@H](CC(=O)O)NC(=O)CNC1=O (stereo partly drawn) | Not Active | 7.72 | 7.49 | 1.68 | Unstable | Not Active | 2.46 | 7.89 | Not Active | 7.49 | – | –
OCCOCCOCCOCCO[Si]1(OCCOCCOCCOCCO)n2c3c4ccccc4c2/N=C2N=C(/N=c4/c5ccccc5/c(n41)=N/C1=NC(=N\3)/c3ccccc31)c1ccccc1\2 | – | 9.70 | 9.70 | 1 | Unstable | – | 1 | 9.70 | – | 9.70 | Not Active | –
N=C(N)NCCC[C@@H]1NC(=O)[C@H](Cc2cn(CCOCCO[Si]3(OCCOCCO)n4c5c6ccccc6c4/N=C4N=C(/N=c6/c7ccccc7/c(n63)=N/C3=NC(=N\5)/c5ccccc53)c3ccccc3\4)nn2)NC(=O)[C@@H](Cc2ccccc2)NC(=O)[C@H](CC(=O)O)NC(=O)CNC1=O (stereo partly drawn) | Not Active | 7.48 | 7.41 | 1 | Unstable | Not Active | 1.11 | 7.46 | Not Active | 7.48 | – | –
OCCOCCOCCO[Si]1(OCCOCCOCCO)n2c3c4ccccc4c2/N=C2N=C(/N=c4/c5ccccc5/c(n41)=N/C1=NC(=N\3)/c3ccccc31)c1ccccc1\2 | – | 9.52 | 9.52 | 1 | Unstable | – | 1 | 9.52 | – | 9.52 | Not Active | Drug uptake (Mus musculus): Not Active; Drug uptake [12]: Not Active; Drug uptake [13]: Not Active; Drug uptake [14]: Active; Drug uptake [15]: Not Active; Drug uptake [16]: Not Active; Drug uptake [17]: Active; Drug uptake [18]: Active; Drug uptake [19]: Not Active; Drug uptake [20]: Not Active; Drug uptake [21]: Not Active
[N-]=[N+]=NCCOCCOCCO[Si]1(OCCOCCOCCN=[N+]=[N-])n2c3c4ccccc4c2/N=C2N=C(/N=c4/c5ccccc5/c(n41)=N/C1=NC(=N\3)/c3ccccc31)c1ccccc1\2 (stereo not drawn) | – | 8.07 | 7.96 | 1.4 | Unstable | – | 1.39 | 8.10 | – | 7.92 | Not Active | –
N=C(N)NCCC[C@@H]1NC(=O)[C@H](Cc2cn(CCOCCOCCO[Si]3(OCCOCCOCCO)n4c5c6ccccc6c4/N=C4N=C(/N=c6/c7ccccc7/c(n63)=N/C3=NC(=N\5)/c5ccccc53)c3ccccc3\4)nn2)NC(=O)[C@@H](Cc2ccccc2)NC(=O)[C@H](CC(=O)O)NC(=O)CNC1=O (stereo partly drawn) | Not Active | 7.49 | 7.59 | 1.22 | Unstable | Not Active | 1 | 7.59 | Not Active | 7.41 | – | –
OCCOCCO[Si]1(OCCOCCO)n2c3c4ccccc4c2/N=C2N=C(/N=c4/c5ccccc5/c(n41)=N/C1=NC(=N\3)/c3ccccc31)c1ccccc1\2 | – | 8.92 | 9.05 | 0.83 | Unstable | – | 1.13 | 9.10 | – | 9.00 | Not Active | –
N=C(N)NCCC[C@@H]1NC(=O)[C@H](Cc2cn(CCOCCO[Si]3(OCCOCCn4cc(C[C@@H]5NC(=O)[C@@H](Cc6ccccc6)NC(=O)[C@H](CC(=O)O)NC(=O)CNC(=O)[C@H](CCCNC(=N)N)NC5=O)nn4)n4c5c6ccccc6c4/N=C4N=C(/N=c6/c7ccccc7/c(n63)=N/C3=NC(=N\5)/c5ccccc53)c3ccccc3\4)nn2)NC(=O)[C@@H](Cc2ccccc2)NC(=O)[C@H](CC(=O)O)NC(=O)CNC1=O (stereo partly drawn) | Not Active | 7.66 | 7.64 | 1.73 | Unstable | Not Active | 1.64 | 7.85 | Not Active | 7.42 | – | –
[N-]=[N+]=NCCOCCOCCOCCO[Si]1(OCCOCCOCCOCCO)n2c3c4ccccc4c2/N=C2N=C(/N=c4/c5ccccc5/c(n41)=N/C1=NC(=N\3)/c3ccccc31)c1ccccc1\2 (stereo not drawn) | – | 8.59 | 8.77 | 1.04 | Unstable | – | 1.21 | 8.85 | – | 8.57 | Not Active | –
[N-]=[N+]=NCCOCCOCCO[Si]1(OCCOCCOCCO)n2c3c4ccccc4c2/N=C2N=C(/N=c4/c5ccccc5/c(n41)=N/C1=NC(=N\3)/c3ccccc31)c1ccccc1\2 (stereo not drawn) | – | 8.52 | 8.89 | 0.83 | Unstable | – | 0.76 | 8.77 | – | 8.60 | Not Active | –
[N-]=[N+]=NCCOCCOCCOCCO[Si]1(OCCOCCOCCOCCN=[N+]=[N-])n2c3c4ccccc4c2/N=C2N=C(/N=c4/c5ccccc5/c(n41)=N/C1=NC(=N\3)/c3ccccc31)c1ccccc1\2 (stereo not drawn) | – | 8.20 | 8.40 | 1.03 | Unstable | – | 1.03 | 8.41 | – | 8.19 | Not Active | –
[N-]=[N+]=NCCOCCO[Si]1(OCCOCCN=[N+]=[N-])n2c3c4ccccc4c2/N=C2N=C(/N=c4/c5ccccc5/c(n41)=N/C1=NC(=N\3)/c3ccccc31)c1ccccc1\2 (stereo not drawn) | – | 7.92 | 8.36 | 1 | Unstable | – | 0.62 | 8.15 | – | 7.92 | Active | –
N=C(N)NCCC[C@@H]1NC(=O)[C@H](Cc2cn(CCOCCOCCOCCO[Si]3(OCCOCCOCCOCCO)n4c5c6ccccc6c4/N=C4N=C(/N=c6/c7ccccc7/c(n63)=N/C3=NC(=N\5)/c5ccccc53)c3ccccc3\4)nn2)NC(=O)[C@@H](Cc2ccccc2)NC(=O)[C@H](CC(=O)O)NC(=O)CNC1=O (stereo partly drawn) | Not Active | 7.49 | 7.48 | 1.09 | Unstable | Not Active | 1.03 | 7.49 | Not Active | 7.46 | – | –
[N-]=[N+]=NCCOCCO[Si]1(OCCOCCO)n2c3c4ccccc4c2/N=C2N=C(/N=c4/c5ccccc5/c(n41)=N/C1=NC(=N\3)/c3ccccc31)c1ccccc1\2 (stereo not drawn) | – | 8.49 | 8.59 | 1.15 | Unstable | – | 1.18 | 8.66 | – | 8.43 | Not Active | –
